{"source": "patent US11980626B2", "about": "“Compositions for treatment of breast and prostate cancer” (Kembi Therapeutics Pty Ltd, priority 2017, dated 2024)", "key": {"CYP17 [1]": {"tested_on": "CYP17", "test": "Progesterone response in ER+ breast cancer patients", "assay_type": "in vivo, human", "details": "vs. patients treated with abiraterone and prednisone (Abi/Pred), FIG. 20", "procedure": "(§1) Subjects that fulfill the Inclusion Criteria captured in Table 4 were administered seviteronel (600 mg for male subjects, 4×150 mg tablets; 450 mg for female subjects, 3×150 mg tablets) once daily until any of the criteria in Table 2 are met. Table 5 captures the clinical screening data and screening schedule for the various screens for each of the male subjects.\nas §1, with “tablets) and dexamethasone (0.5 mg)” for “tablets)”\n(§2) Blood samples were collected for evaluation of steroid hormone changes as a pharmacodynamics indicator of CYP17 inhibition over time e.g., DHEA, DHEA-S, androstenedione, testosterone, cortisol, corticosterone, progesterone, pregnenolone, estradiol, estrone and ACTH)."}, "CYP17 [2]": {"tested_on": "CYP17", "test": "Endocrine profile (steroid hormone changes) in prostate cancer patients", "assay_type": "in vivo, human", "details": "seviteronel 600 mg once daily, FIG. 7", "procedure": "(§3) Males that fulfill the Inclusion Criteria captured in Table 1 were administered seviteronel (600 mg; 4×150 mg tablets) once daily until any of the criteria in Table 2 are met. Table 3 captures the clinical screening data and screening schedule for the various screens for each of the male subjects.\nas §3, with “tablets) and dexamethasone (0.5 mg)” for “tablets)”\nas §2"}}, "data": [{"smiles": "CC(C)C(O)(c1ccc2cc(OC(F)F)c(OC(F)F)cc2c1)c1c[nH]nn1", "note": "(centres unmarked) [SEVI, 1-(6,7-Bis(difluoromethoxy)naphthalen-2-yl)-2-methyl-1-(1H-1,2,3-triazol-4-yl)propan-1-ol]", "values": [{"measurement": "increase in progesterone", "setting": "CYP17 [1]", "result": "lack of clinically relevant increase"}, {"measurement": "\"up-stream\" steroids change", "setting": "CYP17 [2]", "result": "limited increase"}, {"measurement": "ACTH change", "setting": "CYP17 [2]", "result": "modest ACTH increase"}, {"measurement": "androgen change", "setting": "CYP17 [2]", "result": "modest androgen decline"}, {"measurement": "cortisol change", "setting": "CYP17 [2]", "result": "modest cortisol decrease"}]}]}
